This is an account of results in paper PMC13355314, “Charged molecular glue discovery enabled by targeted degron display” (Nature Chemical Biology, 2026).

SMILES strings stand for the structures.

Data set [1] deals with T1, BRD4BD1 (Homo sapiens, UniProt O60885).
T1 construct: host or cells: K562-Cas9
Nature of the data set: cell-based. Format: cell-based. The conditions noted are these: K562, 16 h. On the procedure: Reporter cell lines were generated as described previously.
(§1) Then, 50 µl of cell suspension was seeded in 384-well plates and immediately treated with DMSO or drug for 16 h. The indicated drugs were dispensed with a D300 digital dispenser (Tecan Genomics). The fluorescence signal was quantified by flow cytometry (FACSymphony flow cytometer, BD Biosciences). Using FlowJo (flow cytometry analysis software, BD Biosciences), the geometric mean of the eGFP and mCherry fluorescent signal for round and mCherry-positive cells was calculated. The ratio of eGFP to mCherry was normalized to the average of ten DMSO-treated controls.

Data set [2] has as its system FAM–BRD4BD1 + YPEL5–WDR26. Nature of the data set: Real-time FP monitoring the rate of ternary complex formation. It counts as binding, human. The conditions noted are these: in vitro, DTT-containing buffer.
Procedure: Here, the concentration of DTT in the binding buffer used for preparing the tracer–E3 ligase mixture varied from 0.1 to 5 mM.
Data set [3] can be described thus: Plasma stability, mouse. It counts as in vitro ADME. As to conditions: read-out: Plasma Stability (T1/2 min).
Data set [4] concerns the target T2, BRD4BD2 (Homo sapiens, UniProt O60885).
T2 construct: host or cells: K562-Cas9
Nature of the data set: BRD4 reporter stability analysis, BRD4BD2–eGFP (K562-Cas9, flow cytometry). Format: cell-based. As to the method:
The Cilantro 2 reporter vector (PGK.BsmBICloneSite-10aaFlexibleLinker-eGFP.IRES.mCherry. cppt.EF1α.PuroR; Addgene, 74450) was used for flow-based degradation assays. […] Reporter cell lines were generated as described previously.
as §1

In data set [5] the target is T3, BRD4 (Homo sapiens, UniProt O60885).
T3 construct: Endogenous BRD4 protein levels were evaluated using the Nano-Glo HiBiT lytic detection system; endogenous in cells; host or cells: Jurkat (HiBiT knock-in; some series in YPEL5-/- cells re-expressing WT or mutant YPEL5-FLAG)
Nature of the data set: HiBiT–BRD4 assay (endogenous BRD4 protein levels). Format: cell-based. The conditions noted are these: Jurkat cells, 5 h. On the procedure: Introduction of a HiBiT coding sequence into the endogenous BRD4 locus in Jurkat cells was achieved using CRISPR–Cas9 genome editing. Alt-R CRISPR RNA (crRNA) and trans-activating crRNA (tracrRNA) (Integrated DNA Technologies) were resuspended in nuclease-free duplex buffer (Integrated DNA Technologies) at a concentration of 200 µM each. Equal volumes of crRNA and tracrRNA were mixed (final concentration of 100 µM each) and heated for 5 min at 95 °C. After heating, the complex was gradually cooled to room temperature. The oligo complex was then incubated at room temperature for 20 min with the Alt-R Cas9 nuclease V3 (Integrated DNA Technologies) to form the ribonucleoprotein (RNP) complex. The double-stranded DNA homology-directed repair (HDR) template (HiBiT–BRD4 with extensions, shown below), the RNP complex and an electroporation enhancer (Integrated DNA Technologies) were then electroporated into Jurkat cells using an Amaxa 4D-Nucleofector (Lonza). Electroporated cells were transferred to medium with HRD enhancer (Integrated DNA Technologies). Single cells were subsequently isolated by fluorescence-activated cell sorting and HiBiT expression from individual clones was detected with the Nano-Glo HiBiT lytic detection system (Promega). Sequences for the crRNA and HDR donor are provided below.
Endogenous BRD4 protein levels were evaluated using the Nano-Glo HiBiT lytic detection system (Promega). In brief, 1.5 × 10^4 HiBiT–BRD4 Jurkat cells were seeded into 384-well plates and incubated with the indicated concentrations of compounds. After 5 h, the plates were subjected to a Nano-Glo HiBiT lytic detection system as described in the manufacturer’s manual. The HiBiT–BRD4 assays were conducted in biological triplicates.
On the technique in general: With HiBiT, luminescence reflects the tagged protein that the partner subunit can reach.

Data set [6] can be described thus: GSH chemical stability. Format: physicochemical. As to conditions: buffer. From the text: Afatinib Time Peak Area %Remaining Ln T1/2
(Ctrl) (min) Ratio (%remaining) (min)
(min) Ratio (%remaining) (min)

Data set [7] is described as follows: Plasma stability, human. It counts as in vitro ADME. As to conditions: read-out: Plasma Stability (T1/2 min).
Data set [8] addresses T4, BRD3BD1 (Homo sapiens, UniProt Q15059).
T4 construct: Cellular fluorescent reporter assay testing ZZ1-induced degradation of BRD2 and BRD3 BD1 bromodomains; expressed in transfected cells
Nature of the data set: Cellular fluorescent reporter assay, BRD3 BD1. It counts as cell-based. On the procedure:
as §1
(In general: Reporter assays use an easily measured gene product as a stand-in for the process of interest.)

The target in data set [9] is T5, BRD2BD1 (Homo sapiens, UniProt P25440).
T5 construct: Cellular fluorescent reporter assay testing ZZ1-induced degradation of BRD2 and BRD3 BD1 bromodomains; expressed in transfected cells
T5 sequence (P25440 74-180 limits assumed): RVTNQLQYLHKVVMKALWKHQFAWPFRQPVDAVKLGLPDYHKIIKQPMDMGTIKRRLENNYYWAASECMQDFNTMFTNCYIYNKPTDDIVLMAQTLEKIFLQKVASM
Nature of the data set: Cellular fluorescent reporter assay, BRD2 BD1. Format: cell-based. On the procedure:
as §1

A short description of data set [10]: Microsome stability, MLM. Format: in vitro ADME. As to conditions: mouse, liver microsomes; for half-life: read-out: MLM Stability (T1/2 min). For orientation: Liver microsomes are a subcellular fraction often used to study metabolism.
A short description of data set [11]: Microsome stability, HLM. It counts as in vitro ADME. The conditions noted are these: human, liver microsomes; for half-life: read-out: HLM Stability (T1/2 min).
Data set [12] addresses T6, FAM–BRD4BD1 + YPEL5–WDR26 module (Homo sapiens, UniProt O60885+P62699).
T6 construct: fluorescent BRD4 bromodomain substrates, either in isolation (BRD4BD1 and BRD4BD2) or in tandem (BRD4BD1+BD2); GST (N, cleaved yes); made in house; host or cells: BRD4BD1: E. coli BL21 (DE3) RIL; YPEL5–WDR26ΔCTLH: Trichoplusia ni High Five insect cells
Nature of the data set: FP assay quantifying ternary complex formation. As to conditions: *BRD4BD1 binding to YPEL5–WDR26 upon degrader titration. From the text:
The potency of the degraders was expressed as the EC50 estimated by nonlinear regression using a four-parameter [agonist] versus response model.

Data set [13] concerns the target T7, *BRD4BD1 / YPEL5-CTLH E3 (Homo sapiens, UniProt O60885+P62699).
T7 construct: fluorescent BRD4 bromodomain substrates, either in isolation (BRD4BD1 and BRD4BD2) or in tandem (BRD4BD1+BD2); GST (N, cleaved yes); made in house; host or cells: CTLH E3 and UBA1: High Five insect cells; BRD4BD1, UBE2H, ubiquitin: E. coli BL21 (DE3) RIL
Nature of the data set: In vitro ubiquitylation assay (YPEL5-CTLH E3, UBE2H). It counts as biochemical. The conditions noted are these: YPEL5-CTLH E3-dependent.
Procedure: All ubiquitylation assays were performed at room temperature in the final reaction buffer containing 25 mM HEPES pH 7.5, 150 mM NaCl, 0.25 mM DTT, 5 mM ATP and 10 mM MgCl2. Samples at indicated time points were quenched by mixing an aliquot of the total reaction mixture with a reducing Laemmli buffer and subjected to SDS–PAGE. Substrate ubiquitylation was visualized by a fluorescence scan of SDS–PAGE gels using the Amersham Typhoon Imager 600 (GE Healthcare).
The mixture was incubated at room temperature for 1 h and supplemented with 0.2 μM E1 UBA1 and 20 μM ubiquitin to initiate the reaction.

For data set [14], the system named is ternary complex of *BRD4BD1, ZZ1-SO2H and YPEL5-WDR26. Nature of the data set: Competitive FP disrupting the ternary complex. Format: binding, human.
Source text: The four-parameter [inhibitor] versus response model was applied to estimate the IC50.

T4 sequence (Q15059 34-140 limits assumed): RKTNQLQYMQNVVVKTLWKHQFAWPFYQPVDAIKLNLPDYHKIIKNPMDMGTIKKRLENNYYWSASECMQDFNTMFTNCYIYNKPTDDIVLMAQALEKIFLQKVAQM

As usually defined, the share remaining is what is left of the initial amount, in per cent. High values mean greater stability, low ones a greater loss. As usually defined, the microsomal CLint is a measure of how fast metabolising enzymes remove a compound, apart from limits set by blood flow. Regarding `Cc1sc2c(c1C)C(c1ccc(NC(=O)c3cc(Cl)c(S(=O)(=O)F)c(Cl)c3)cc1)=N[C@@H](CC(=O)OC(C)(C)C)c1nnc(C)n1-2` [ZZ2], the DC50 worked out at 91 ± 8.8 nM in data set [1] (BRD4BD1 reporter); 198 ± 75.5 nM in data set [4] (BRD4BD2 reporter, K562, 16 h); 169 nM in data set [5]; 21.1 ± 3.1 nM in data set [8]; 46.4 ± 6.6 nM in data set [9]. Besides, the Dmax in data set [1] (K562, BRD4BD1 reporter) was 81%; in data set [4] (K562), 31%; in [8] it was 82%; in data set [9], 76%. Also, the “rate of ternary complex formation” value in data set [2] is listed as “much faster rate”. Besides, the half-life in data set [3] was 7 min; in [6] (GSH chemical stability), less than 5 min; in data set [7], 14 min; in data set [10], 1.9 min; in [11] it was 2.1 min. The compound also displayed a share remaining at 5 min in data set [6] (GSH, 5 min) of 9.27%. Also, the amount remaining at […] in data set [6] (GSH, 15 min) is 4.72%. The fraction remaining at 0.5 h in [6] (GSH, 30 min) was 0%. The compound further had a fraction remaining at 1 h in data set [6] (GSH, 60 min) of 0%. The fraction remaining at 2 h in data set [6] (GSH, 120 min) was found to be 0%. Moreover, the intrinsic clearance (microsomal CLint) in data set [10] turned out to be 741 µL/min/mg; in [11], 670 µL/min/mg.
For `CCN(CC)CCNC(=O)c1c(C)[nH]c(/C=C2\C(=O)Nc3ccc(F)cc32)c1C` [Sunitinib, reference compound], the results for the microsomal CLint in [10] and in [11] were 38 µL/min/mg and 32 µL/min/mg, respectively. Besides, the half-life in data set [10] was 36.5 min; in data set [11] it was 43.5 min.
Usually EC50 stands for the concentration giving half of the maximal effect. `Cc1sc2c(c1C)C(c1ccc(NC(=O)c3cc(Cl)c(S(=O)O)c(Cl)c3)cc1)=N[C@@H](CC(=O)OC(C)(C)C)c1nnc(C)n1-2` [ZZ2-SO2H, 4-((4-((S)-6-(2-(tert-butoxy)-2-oxoethyl)-2,3,9-trimethyl-6H-thieno[3,2-f][1,2,4]triazolo[4,3-a][1,4]diazepin-4-yl)phenyl)carbamoyl)-2,6-dichlorobenzenesulfinic acid]: the EC50 in data set [12] is less than 74 nM. Further, the “BRD4BD1 ubiquitylation in vitro” value in data set [13] is “promotes more robust BRD4BD1 ubiquitylation”.
`Cc1sc2c(c1C)C(c1ccc(Cl)cc1)=N[C@@H](CC(=O)OC(C)(C)C)c1nnc(C)n1-2` [JQ1, reference compound]: in data set [14], the “disruption of the ternary complex” value is listed as “could disrupt the ternary complex”.
